Measurements published in patent publication US7320984B2, “Remedies or preventives for urinary frequency or urinary incontinence and morphinan derivatives having nitrogen-containing heterocyclic group” (Toray Industries, Inc., priority 2002, dated 2008).

Tested on: rhythmic bladder contractions in rats
Test: Inhibitory effect against rhythmic bladder contractions in rats
Type: in vivo
Conditions: anesthetized female SD rats, intravenous, dose 0.03 mg/kg body weight
Experimental: Inhibitory Effect Against Rhythmic Bladder Contractions in Rats
Female SD rats were anesthetized with an intraperitoneal administration of urethane (1.0 g/kg). A polyethylene tube was inserted from the urethra to the bladder and the tube was fixed by ligation. Then physiological saline was appropriately infused (infusion rate: about 0.2 ml/min., maximum: about 1.5 ml/animal) through the tube to cause rhythmic bladder contractions. The rhythmic bladder contractions were monitored by measuring the intravesical pressure through a polyethylene tube inserted into the bladder. After confirming that stable rhythmic bladder contractions occurred at least 10 times, a vehicle containing a prescribed dose of a test compound was intravenously administration at a dose of 1 ml/kg. In cases where the intravesical pressure, within 10 minutes after the administration of the test compound, decreased to 50% or less of the intravesical pressure immediately […] the administration, the test compound was judged as having inhibitory effect against urinary bladder contractions, and the time period until the intravesical pressure returned to more than 50% was defined as inhibitory time of rhythmic bladder contractions. As the vehicle for administration, physiological saline was used for test compounds 4, 7, 8, 9, 10, 13, 29, 30, 31, 33, 34, 75, 76, 79, 80, 81, 82, 84, 89, 90, 91, 93, 94, 95, 110 and 111, aqueous 10% dimethylsulfoxide (DMSO) solution was used for test compounds 11, 12, 14, 15, 16, 17, 18, 20, 21, 23, 28, 46, 47, 50, 55, 56, 57, 58, 59, 60, 61, 62, 63, 64, 65, 66, 68, 69, 70, 71, 72, 73, 74, 77, 78, 83, 85, 86, 87, 88, 92, 96, 97, 98, 99, 100, […], 103, 104, 105, 106, 107, 108 and […], aqueous 20% dimethylsulfoxide (DMSO) solution was used for test compounds 1, 2, 67 and 101, and aqueous 5% xylitol solution was used for test compounds 5 and 35. The aqueous 10% DMSO solution, aqueous 20% DMSO solution and the aqueous 5% xylitol solution per se, which may influence on the inhibitory time of rhythmic bladder contractions, were also tested at a dose of 1 ml/kg. With any of the compounds, prolongation of the inhibitory time of rhythmic bladder contractions was observed when compared with that obtained in the group to which the vehicle alone was administered.

| Compound | Mean Inhibitory Time of Rhythmic Bladder Contractions |
| --- | --- |
| O=C1c2cccc(F)c2CN1[C@@H]1CC[C@@]2(O)[C@H]3Cc4ccc(O)c5c4[C@@]2(CCN3CC2CC2)[C@H]1O5 [Compound 81, 2-(17-cyclopropylmethyl-4,5α-epoxy-3,14-dihydroxy-morphinan-6β-yl)-4-fluoro-2,3-dihydro-isoindol-1-one] | 16.1 min |
| O=C1c2cc(F)ccc2CN1[C@@H]1CC[C@@]2(O)[C@H]3Cc4ccc(O)c5c4[C@@]2(CCN3CC2CC2)[C@H]1O5 [Compound 82, 2-(17-cyclopropylmethyl-4,5α-epoxy-3,14-dihydroxy-morphinan-6β-yl)-6-fluoro-2,3-dihydro-isoindol-1-one] | 19.9 min |
| C=CCN1CC[C@]23c4c5ccc(O)c4O[C@H]2[C@H](N2Cc4cccc(F)c4C2=O)CC[C@@]3(O)[C@H]1C5 [Compound 88, 2-(17-allyl-4,5α-epoxy-3,14-dihydroxy-morphinan-6β-yl)-7-fluoro-2,3-dihydro-isoindol-1-one] | 10.7 min |
| CC(=O)O[C@@]12CC[C@@H](N3C(=O)c4ccccc4C3=O)[C@@H]3Oc4c(O)ccc5c4[C@@]31CCN(CC1CC1)[C@@H]2C5 [Compound 91, N-(14-acetoxy-17-cyclopropylmethyl-4,5α-epoxy-3-hydroxymorphinan-6β-yl)-phthalimide] | 14.7 min |

Same assay, conditions: anesthetized female SD rats, intravenous, dose 0.1 mg/kg body weight

| Compound | Mean Inhibitory Time of Rhythmic Bladder Contractions |
| --- | --- |
| O=C1[C@H]2CC=CC[C@H]2C(=O)N1[C@@H]1CC[C@@]2(O)[C@H]3Cc4ccc(O)c5c4[C@@]2(CCN3CC2CC2)[C@H]1O5 [Compound 78, N-(17-cyclopropylmethyl-4,5α-epoxy-3,14-dihydroxy-morphinan-6β-yl)-cis-1,2,3,6-tetrahydrophthalimide] | 13.4 min |
| O=C1[C@H]2C[C@H]2C(=O)N1[C@@H]1CC[C@@]2(O)[C@H]3Cc4ccc(O)c5c4[C@@]2(CCN3CC2CC2)[C@H]1O5 [Compound 79, N-(17-cyclopropylmethyl-4,5α-epoxy-3,14-dihydroxy-morphinan-6β-yl)-1,2-cyclopropanedicarboimide] | 2.1 min |
| O=C1c2cccnc2C(=O)N1[C@@H]1CC[C@@]2(O)[C@H]3Cc4ccc(O)c5c4[C@@]2(CCN3CC2CC2)[C@H]1O5 [Compound 80, N-(17-cyclopropylmethyl-4,5α-epoxy-3,14-dihydroxy-morphinan-6β-yl)-2,3-pyridinedicarboimide] | 1.1 min |
| O=C1C2=C(CCCC2)CN1[C@@H]1CC[C@@]2(O)[C@H]3Cc4ccc(O)c5c4[C@@]2(CCN3CC2CC2)[C@H]1O5 [Compound 83, 2-(17-cyclopropylmethyl-4,5α-epoxy-3,14-dihydroxy-morphinan-6β-yl)-2,3,4,5,6,7-hexahydro-isoindol-1-one] | 10.6 min |
| C=CCN1CC[C@]23c4c5ccc(O)c4O[C@H]2[C@H](N2CC4=C(CCCC4)C2=O)CC[C@@]3(O)[C@H]1C5 [Compound 84, 2-(17-allyl-4,5α-epoxy-3,14-dihydroxy-morphinan-6-yl)-2,3,4,5,6,7-hexahydro-isoindol-1-one] | 9.3 min |
| C=CCN1CC[C@]23c4c5ccc(O)c4O[C@H]2[C@@H](N2CC4=C(CCCC4)C2=O)CC[C@@]3(O)[C@H]1C5 [Compound 85, 2-(17-allyl-4,5α-epoxy-3,14-dihydroxy-morphinan-6α-yl)-2,3,4,5,6,7-hexahydro-isoindol-1-one] | 6.9 min |
| C=CCN1CC[C@]23c4c5ccc(O)c4O[C@H]2[C@H](N2Cc4ccccc4C2=O)CC[C@@]3(O)[C@H]1C5 [Compound 86, 2-(17-allyl-4,5α-epoxy-3,14-dihydroxy-morphinan-6β-yl)-2,3-dihydro-isoindol-1-one] | 12.1 min |
| C=CCN1CC[C@]23c4c5ccc(O)c4O[C@H]2[C@@H](N2Cc4ccccc4C2=O)CC[C@@]3(O)[C@H]1C5 [Compound 87, 2-(17-allyl-4,5α-epoxy-3,14-dihydroxy-morphinan-6α-yl)-2,3-dihydro-isoindol-1-one] | 6.4 min |
| C=CCN1CC[C@]23c4c5ccc(O)c4O[C@H]2[C@H](N2Cc4c(F)cccc4C2=O)CC[C@@]3(O)[C@H]1C5 [Compound 89, 2-(17-allyl-4,5α-epoxy-3,14-dihydroxy-morphinan-6β-yl)-4-fluoro-2,3-dihydro-isoindol-1-one] | 12.5 min |
| C=CCN1CC[C@]23c4c5ccc(O)c4O[C@H]2[C@H](N2Cc4ccc(F)cc4C2=O)CC[C@@]3(O)[C@H]1C5 [Compound 90, 2-(17-allyl-4,5α-epoxy-3,14-dihydroxy-morphinan-6β-yl)-6-fluoro-2,3-dihydro-isoindol-1-one] | 17.6 min |
| C=CCN1CC[C@]23c4c5ccc(O)c4O[C@H]2[C@H](N2C(=O)c4ccccc4C2=O)CC[C@@]3(OC(C)=O)[C@H]1C5 [Compound 92, N-(14-acetoxy-17-allyl-4,5α-epoxy-3-hydroxymorphinan-6β-yl)-phthalimide] | 16.0 min |
| CC(=O)O[C@@]12CC[C@@H](N3CC4=C(CCCC4)C3=O)[C@@H]3Oc4c(O)ccc5c4[C@@]31CCN(CC1CC1)[C@@H]2C5 [Compound 93, N-(14-acetoxy-17-cyclopropylmethyl-4,5α-epoxy-3-hydroxymorphinan-6β-yl)-2,3,4,5,6,7-hexahydro-isoindol-1-one] | 16.0 min |
| CCCN1CC[C@]23c4c5ccc(O)c4O[C@H]2[C@H](N2C(=O)c4ccccc4C2=O)CC[C@@]3(O)[C@H]1C5 [Compound 94, N-(4,5α-epoxy-3,14-dihydroxy-17-propyl-morphinan-6β-yl)-phthalimide] | 11.9 min |
| CN1CC[C@]23c4c5ccc(O)c4O[C@H]2[C@H](N2C(=O)c4ccccc4C2=O)CC[C@H]3[C@H]1C5 [Compound 95, N-(4,5α-epoxy-3-hydroxy-17-methyl-morphinan-6β-yl)-phthalimide] | 15.0 min |
| O=C1c2cccc(O)c2C(=O)N1[C@@H]1CC[C@@]2(O)[C@H]3Cc4ccc(O)c5c4[C@@]2(CCN3CC2CC2)[C@H]1O5 [Compound 96, N-(17-cyclopropylmethyl-4,5α-epoxy-3,14-dihydroxy-morphinan-6β-yl)-3-hydroxy-phthalimide] | 12.9 min |
| Nc1cccc2c1C(=O)N([C@@H]1CC[C@@]3(O)[C@H]4Cc5ccc(O)c6c5[C@@]3(CCN4CC3CC3)[C@H]1O6)C2=O [Compound 97, N-(17-cyclopropylmethyl-4,5α-epoxy-3,14-dihydroxy-morphinan-6β-yl)-3-amino-phthalimide] | 11.2 min |
| Nc1ccc2c(c1)C(=O)N([C@@H]1CC[C@@]3(O)[C@H]4Cc5ccc(O)c6c5[C@@]3(CCN4CC3CC3)[C@H]1O6)C2=O [Compound 98, N-(17-cyclopropylmethyl-4,5α-epoxy-3,14-dihydroxy-morphinan-6β-yl)-4-amino-phthalimide] | 7.2 min |
| C=CCN1CC[C@]23c4c5ccc(O)c4O[C@H]2[C@H](N2C(=O)c4ccc(N)cc4C2=O)CC[C@@]3(O)[C@H]1C5 [Compound 99, N-(17-allyl-4,5α-epoxy-3,14-dihydroxy-morphinan-6β-yl)-4-amino-phthalimide] | 16.9 min |
| C=CCN1CC[C@]23c4c5ccc(O)c4O[C@H]2[C@H](N2C(=O)c4cccc(N)c4C2=O)CC[C@@]3(O)[C@H]1C5 [Compound 100, N-(17-allyl-4,5α-epoxy-3,14-dihydroxy-morphinan-6β-yl)-3-amino-phthalimide] | 14.0 min |
| COc1cccc2c1C(=O)N([C@@H]1CC[C@@]3(O)[C@H]4Cc5ccc(O)c6c5[C@@]3(CCN4CC3CC3)[C@H]1O6)C2=O [Compound 102, N-(17-cyclopropylmethyl-4,5α-epoxy-3,14-dihydroxy-morphinan-6β-yl)-3-methoxy-phthalimide] | 15.6 min |
| O=c1c2ccccc2[nH]n1[C@@H]1CC[C@@]2(O)[C@H]3Cc4ccc(O)c5c4[C@@]2(CCN3CC2CC2)[C@H]1O5 [Compound 103, 2-(17-cyclopropylmethyl-4,5α-epoxy-3,14-dihydroxy-morphinan-6β-yl)-1,2-dihydro-indazol-3-one] | 13.1 min |

Same assay, conditions: anesthetized female SD rats, intravenous, dose 0.3 mg/kg body weight

| Compound | Mean Inhibitory Time of Rhythmic Bladder Contractions |
| --- | --- |
| CCCN1CC[C@]23c4c5ccc(O)c4O[C@H]2[C@H](N2C(=O)c4cccc(N)c4C2=O)CC[C@@]3(O)[C@H]1C5 [Compound 101, N-(4,5α-epoxy-3,14-dihydroxy-17-propyl-morphinan-6β-yl)-3-amino-phthalimide] | 15.1 min |
